Structures are written as SMILES.

The assay concerns the target T1, F508del (Homo sapiens, UniProt P13569, DEL508-508).
T1 construct: expressed in transfected cells
The experiment in a line: Protocol 1: membrane potential optical assay (FLIPR III, voltage sensing dye), identification of potentiator compounds. Format: cell-based. The conditions noted are these: Table 3, compounds of Table 1. The method in brief:
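Membrane potential in forskolin-activated, temperature-rescued F508del NIH 3T3 cells is followed with a voltage-sensing dye on FLIPR III. A chloride ion gradient created at the single addition step provides the driving force, after prior compound treatment.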

T1 sequence (P13569 with tags, fused parts or gaps DEL508-508): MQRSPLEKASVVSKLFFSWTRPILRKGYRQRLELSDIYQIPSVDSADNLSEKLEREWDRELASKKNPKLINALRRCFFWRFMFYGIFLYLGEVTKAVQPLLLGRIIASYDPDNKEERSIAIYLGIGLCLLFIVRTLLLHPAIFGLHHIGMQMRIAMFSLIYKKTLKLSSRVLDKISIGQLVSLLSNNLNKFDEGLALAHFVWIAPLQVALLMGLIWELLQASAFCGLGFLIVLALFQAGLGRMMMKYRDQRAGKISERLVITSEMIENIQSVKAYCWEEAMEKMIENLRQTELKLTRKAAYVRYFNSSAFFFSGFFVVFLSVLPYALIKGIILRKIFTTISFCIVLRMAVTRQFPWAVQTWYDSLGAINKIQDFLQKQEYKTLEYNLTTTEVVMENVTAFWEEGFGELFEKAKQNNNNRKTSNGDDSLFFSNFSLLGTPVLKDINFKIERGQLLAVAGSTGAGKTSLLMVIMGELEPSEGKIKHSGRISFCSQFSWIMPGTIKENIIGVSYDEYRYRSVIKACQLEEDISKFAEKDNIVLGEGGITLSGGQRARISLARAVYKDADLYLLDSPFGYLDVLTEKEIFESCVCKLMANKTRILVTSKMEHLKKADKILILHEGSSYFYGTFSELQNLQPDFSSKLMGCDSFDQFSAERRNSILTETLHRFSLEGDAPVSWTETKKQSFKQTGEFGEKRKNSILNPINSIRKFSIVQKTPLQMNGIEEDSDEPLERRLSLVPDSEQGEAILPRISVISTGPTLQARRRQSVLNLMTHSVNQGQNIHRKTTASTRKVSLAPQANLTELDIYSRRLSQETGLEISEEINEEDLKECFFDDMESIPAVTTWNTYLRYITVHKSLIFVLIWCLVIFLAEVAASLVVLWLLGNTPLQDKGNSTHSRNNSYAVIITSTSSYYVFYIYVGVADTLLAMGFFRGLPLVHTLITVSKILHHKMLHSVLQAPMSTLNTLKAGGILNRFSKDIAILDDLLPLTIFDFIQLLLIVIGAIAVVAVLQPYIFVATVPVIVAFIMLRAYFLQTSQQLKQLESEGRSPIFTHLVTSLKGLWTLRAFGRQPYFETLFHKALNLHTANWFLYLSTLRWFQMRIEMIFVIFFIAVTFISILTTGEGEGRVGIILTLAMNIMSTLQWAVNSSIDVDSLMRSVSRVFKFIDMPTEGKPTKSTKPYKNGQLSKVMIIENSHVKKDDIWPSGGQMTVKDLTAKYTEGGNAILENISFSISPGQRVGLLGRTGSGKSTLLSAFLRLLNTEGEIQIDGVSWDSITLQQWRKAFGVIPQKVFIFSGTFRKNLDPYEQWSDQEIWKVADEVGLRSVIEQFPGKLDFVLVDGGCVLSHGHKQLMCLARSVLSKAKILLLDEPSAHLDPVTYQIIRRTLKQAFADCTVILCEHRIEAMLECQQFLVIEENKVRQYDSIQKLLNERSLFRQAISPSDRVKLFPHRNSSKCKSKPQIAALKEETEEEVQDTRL

For `Cc1cc(C)c2c(c1)CCN2c1nc(-c2cc(F)cc(OCC(C)C)c2)ccc1C(=O)NS(=O)(=O)c1cccc(N)n1` [Compound 1572, N-[(6-amino-2-pyridyl)sulfonyl]-2-(5,7-dimethylindolin-1-yl)-6-(3-fluoro-5-isobutoxy-phenyl)pyridine-3-carboxamide], the EC30 result is “+++ (“+++” means <3 uM)”.

Consider `COc1cc(F)c(-c2ccc(C(=O)NS(=O)(=O)c3ccc[nH]c3=O)c(N3C[C@@H](C)CC3(C)C)n2)cc1F` [Compound 1913, 6-(2,5-difluoro-4-methoxy-phenyl)-N-[(2-oxo-1H-pyridin-3-yl)sulfonyl]-2-[(4S)-2,2,4-trimethylpyrrolidin-1-yl]pyridine-3-carboxamide], for which the EC30 result was “+++ (“+++” means <3 uM)”.

As to `CC(C)COc1cc(F)cc(-c2ccc(C(=O)NS(=O)(=O)c3nc(N)cs3)c(N3CCC(C)(C)CC3)n2)c1` [Compound 1168, N-(4-aminothiazol-2-yl)sulfonyl-2-(4,4-dimethyl-1-piperidyl)-6-(3-fluoro-5-isobutoxy-phenyl)pyridine-3-carboxamide], the EC30 result was “+++ (“+++” means <3 uM)”.

Take `CC1CN(c2ncccc2C(=O)NS(=O)(=O)c2cccc(N3Cc4cccc5cccc(c45)C3)n2)C(C)(C)C1` (stereo not shown) [Compound 1986, N—[[6-(1,3-dihydrobenzo[de]isoquinolin-2-yl)-2-pyridyl]sulfonyl]-2-(2,2,4-trimethylpyrrolidin-1-yl)pyridine-3-carboxamide]: the EC30 result was “+++ (“+++” means <3 uM)”.

For the compound `CC(C)COc1cc(F)cc(-c2ccc(C(=O)NS(=O)(=O)c3cccc(N)n3)c(OC(C)c3cccnc3)n2)c1` (stereo not shown) [Compound 1434, N-[(6-amino-2-pyridyl)sulfonyl]-6-(3-fluoro-5-isobutoxy-phenyl)-2-[1-(3-pyridyl)ethoxy]pyridine-3-carboxamide], the EC30 entry is “+++ (“+++” means <3 uM)”.

For the compound `CCOc1cccc2c1CN(Cc1c(C)cc(C)cc1C)C2(C)C(=O)NS(=O)(=O)c1cccc(C(F)F)n1` (stereo not shown) [Compound 1597, N-[[6-(difluoromethyl)-2-pyridyl]sulfonyl]-4-ethoxy-1-methyl-2-[(2,4,6-trimethylphenyl)methyl]isoindoline-1-carboxamide], the EC30 result is “+++ (“+++” means <3 uM)”.

Consider `CC(C)CNc1ccc(-c2ccc(C(=O)NS(=O)(=O)c3cccc(N)n3)c(N3[C@H](C)CC[C@@H]3C)n2)cn1` [Compound 1398, N-[(6-amino-2-pyridyl)sulfonyl]-2-[(2S,5R)-2,5-dimethylpyrrolidin-1-yl]-6-[6-(isobutylamino)-3-pyridyl]pyridine-3-carboxamide], for which the EC30 result was “++ (“++” means between 3 uM and 10 uM)”.

With `CCOCCOCCOc1ncc(-c2ccc(C(=O)NS(=O)(=O)c3cccnc3N)c(N3C[C@@H](C)CC3(C)C)n2)cc1C` [Compound 1783, N-[(2-amino-3-pyridyl)sulfonyl]-6-[6-[2-(2-ethoxyethoxy)ethoxy]-5-methyl-3-pyridyl]-2-[(4S)-2,2,4-trimethylpyrrolidin-1-yl]pyridine-3-carboxamide], the EC30 entry is “+++ (“+++” means <3 uM)”.

Take `COc1cccc(S(=O)(=O)NC(=O)c2ccc(-c3cc(F)cc(OCC(C)C)c3)nc2N2CCC(C)(C)CC2)n1` [Compound 1090, 2-(4,4-dimethyl-1-piperidyl)-6-(3-fluoro-5-isobutoxy-phenyl)-N-[(6-methoxy-2-pyridyl)sulfonyl]pyridine-3-carboxamide]: the EC30 result is on record as “+++ (“+++” means <3 uM)”.

As for `CC(C)Oc1ccc(-c2ccc(C(=O)NS(=O)(=O)c3cccc(N)n3)c(N3CCC(F)(F)CC3)n2)cn1` [Compound 889, N-[(6-amino-2-pyridyl)sulfonyl]-2-(4,4-difluoro-1-piperidyl)-6-(6-isopropoxy-3-pyridyl)pyridine-3-carboxamide], the EC30 result is “++ (“++” means between 3 uM and 10 uM)”.
